# Reference: ChEMBL document CHEMBL4376834, “Discovery of 4H-Chromen-4-one Derivatives as a New Class of Selective Rho Kinase (ROCK) Inhibitors, which Showed Potent Activity in ex Vivo Diabetic Retinopathy Models” (J Med Chem, 2019)
# Tests used:
# [1] = target: Bone morphogenetic protein receptor type-2 (Homo sapiens, UniProt Q13873); assay: Inhibition of human recombinant BMPR2 (172 to 734 residues) using myelin basic protein as substrate incubated for 120 mins in presence of [gamma-33ATP] by radiometric scintillation counting analysis
# [2] = target: Calcium/calmodulin-dependent protein kinase type 1 (Homo sapiens, UniProt Q14012); assay: Inhibition of recombinant human CaMK1alpha (2 to end residues) using calmodulin as substrate incubated for 40 mins in presence of [gamma-33ATP] by radiometric scintillation counting analysis
# [3] = target: Transcription initiation factor TFIID subunit 1-like (Homo sapiens, UniProt Q8IZX4); assay: Inhibition of recombinant human TAF1L (1428 to end residues) using RRRFRPASPLRGP as substrate incubated for 120 mins in presence of [gamma33P]ATP by radiometric scintillation counting analysis
# LIM domain kinase 1 = LIM domain kinase 1 (Homo sapiens, UniProt P53667); assay: Inhibition of recombinant human LIMK1 (285 to 638 residues) using cofilin as substrate after 40 mins in presence of [gamma-33ATP] by radiometric scintillation counting analysis
# CDK12/Cyclin K = CDK12/Cyclin K (Homo sapiens, UniProt Q9NYV4); assay: Inhibition of recombinant full length human CDK12/cyclinK using RSRSRSRSRSRSR as substrate incubated for 120 mins in presence of [gamma-33ATP] by radiometric scintillation counting analysis; assay type: protein-complex assay
# [4] = target: Eukaryotic translation initiation factor 2-alpha kinase 3 (Homo sapiens, UniProt Q9NZJ5); assay: Inhibition of human PEK (536 to end residues) using RSRSRSRSRSRSRSR as substrate measured after 40 mins in presence of [gamma33P]ATP by radiometric scintillation counting analysis
# Eukaryotic translation initiation factor 2-alpha kinase 3, sequence (Q9NZJ5 whole entry): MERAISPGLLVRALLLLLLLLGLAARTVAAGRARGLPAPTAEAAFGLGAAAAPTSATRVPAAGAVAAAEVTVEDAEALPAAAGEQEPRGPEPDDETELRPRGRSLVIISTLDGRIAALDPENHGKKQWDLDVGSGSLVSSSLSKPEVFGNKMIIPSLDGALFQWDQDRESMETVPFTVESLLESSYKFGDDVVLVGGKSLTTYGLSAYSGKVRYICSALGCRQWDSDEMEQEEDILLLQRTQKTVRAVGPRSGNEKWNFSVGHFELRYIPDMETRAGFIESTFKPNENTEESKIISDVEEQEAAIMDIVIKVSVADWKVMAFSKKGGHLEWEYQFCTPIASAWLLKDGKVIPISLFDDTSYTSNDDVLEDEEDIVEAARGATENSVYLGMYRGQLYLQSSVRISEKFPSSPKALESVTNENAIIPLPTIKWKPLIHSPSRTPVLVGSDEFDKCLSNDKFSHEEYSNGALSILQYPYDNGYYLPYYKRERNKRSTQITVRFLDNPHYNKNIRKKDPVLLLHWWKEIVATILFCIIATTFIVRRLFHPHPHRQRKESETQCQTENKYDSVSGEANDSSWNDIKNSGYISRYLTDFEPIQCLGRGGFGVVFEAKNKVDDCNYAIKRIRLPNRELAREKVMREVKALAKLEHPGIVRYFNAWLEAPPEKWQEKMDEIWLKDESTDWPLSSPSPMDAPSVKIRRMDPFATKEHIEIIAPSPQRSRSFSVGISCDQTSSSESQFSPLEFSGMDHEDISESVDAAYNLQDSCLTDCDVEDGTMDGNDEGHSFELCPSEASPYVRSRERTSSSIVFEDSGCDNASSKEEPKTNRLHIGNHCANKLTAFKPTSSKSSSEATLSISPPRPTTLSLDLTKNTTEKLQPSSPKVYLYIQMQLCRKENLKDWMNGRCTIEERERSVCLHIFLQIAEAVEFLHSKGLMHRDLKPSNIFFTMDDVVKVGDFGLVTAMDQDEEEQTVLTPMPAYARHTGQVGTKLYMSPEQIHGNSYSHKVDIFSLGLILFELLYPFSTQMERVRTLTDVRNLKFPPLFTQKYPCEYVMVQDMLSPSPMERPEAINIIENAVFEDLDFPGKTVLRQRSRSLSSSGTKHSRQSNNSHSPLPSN
# [5] = target: Hepatocyte growth factor receptor (Homo sapiens, UniProt P08581, Y1230D); assay: Inhibition of recombinant human MET A1209G/V1290L/Y1248D triple mutant (974 to end residues) using KKKGQEEEYVFIE as substrate incubated for 40 mins in presence of [gamma-33ATP by radiometric scintillation counting analysis
# [6] = Inhibition of recombinant human EphB2 A848S/K918E double mutant (560 to end residues) using poly(Glu, Tyr) 4:1 as substrate after 40 mins in presence of [gamma-33ATP] by radiometric scintillation counting analysis
# [7] = target: Serine/threonine-protein kinase 32B (Homo sapiens, UniProt Q9NY57); assay: Inhibition of recombinant human full length STK32B using casein as substrate incubated for 40 mins in presence of [gamma33P]ATP by radiometric scintillation counting analysis
# Serine/threonine-protein kinase 32B, sequence (Q9NY57 whole entry, the tested form may be a part): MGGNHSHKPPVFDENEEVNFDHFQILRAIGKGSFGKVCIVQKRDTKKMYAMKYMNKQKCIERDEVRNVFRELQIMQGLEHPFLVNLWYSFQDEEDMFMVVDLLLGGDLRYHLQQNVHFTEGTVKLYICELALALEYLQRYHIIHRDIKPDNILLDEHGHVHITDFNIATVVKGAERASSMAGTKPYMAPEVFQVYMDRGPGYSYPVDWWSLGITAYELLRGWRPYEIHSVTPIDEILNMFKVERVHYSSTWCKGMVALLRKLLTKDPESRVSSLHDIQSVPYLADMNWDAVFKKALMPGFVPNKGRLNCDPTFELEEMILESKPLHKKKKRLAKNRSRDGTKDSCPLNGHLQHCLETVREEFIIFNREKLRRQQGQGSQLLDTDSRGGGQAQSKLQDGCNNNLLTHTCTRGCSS
# Myosin-IIIb = Myosin-IIIb (Homo sapiens, UniProt Q8WXR4); assay: Inhibition of recombinant human MYO3B (1 to 326 residues) using RLGRDKYKTLRQI as substrate measured after 40 mins in presence of [gamma33P]ATP by radiometric scintillation counting analysis
# [8] = target: Homeodomain-interacting protein kinase 1 (Homo sapiens, UniProt Q86Z02); assay: Inhibition of human recombinant HIPK1 (158 to 555 residues) using myelin basic protein as substrate after 40 mins by [gamma-33ATP] radiometric assay
# Angiopoietin-1 receptor = Angiopoietin-1 receptor (Homo sapiens, UniProt Q02763, Q939H/Q940H); assay: Inhibition of recombinant human TIE2 Q939H/Q940H double mutant (771 to end residues) using poly(Glu, Tyr) 4:1 as substrate incubated for 40 mins in presence of [gamma33P]ATP by radiometric scintillation counting analysis
# Angiopoietin-1 receptor, sequence (Q02763 23-1124 Q939H/Q940H limits assumed): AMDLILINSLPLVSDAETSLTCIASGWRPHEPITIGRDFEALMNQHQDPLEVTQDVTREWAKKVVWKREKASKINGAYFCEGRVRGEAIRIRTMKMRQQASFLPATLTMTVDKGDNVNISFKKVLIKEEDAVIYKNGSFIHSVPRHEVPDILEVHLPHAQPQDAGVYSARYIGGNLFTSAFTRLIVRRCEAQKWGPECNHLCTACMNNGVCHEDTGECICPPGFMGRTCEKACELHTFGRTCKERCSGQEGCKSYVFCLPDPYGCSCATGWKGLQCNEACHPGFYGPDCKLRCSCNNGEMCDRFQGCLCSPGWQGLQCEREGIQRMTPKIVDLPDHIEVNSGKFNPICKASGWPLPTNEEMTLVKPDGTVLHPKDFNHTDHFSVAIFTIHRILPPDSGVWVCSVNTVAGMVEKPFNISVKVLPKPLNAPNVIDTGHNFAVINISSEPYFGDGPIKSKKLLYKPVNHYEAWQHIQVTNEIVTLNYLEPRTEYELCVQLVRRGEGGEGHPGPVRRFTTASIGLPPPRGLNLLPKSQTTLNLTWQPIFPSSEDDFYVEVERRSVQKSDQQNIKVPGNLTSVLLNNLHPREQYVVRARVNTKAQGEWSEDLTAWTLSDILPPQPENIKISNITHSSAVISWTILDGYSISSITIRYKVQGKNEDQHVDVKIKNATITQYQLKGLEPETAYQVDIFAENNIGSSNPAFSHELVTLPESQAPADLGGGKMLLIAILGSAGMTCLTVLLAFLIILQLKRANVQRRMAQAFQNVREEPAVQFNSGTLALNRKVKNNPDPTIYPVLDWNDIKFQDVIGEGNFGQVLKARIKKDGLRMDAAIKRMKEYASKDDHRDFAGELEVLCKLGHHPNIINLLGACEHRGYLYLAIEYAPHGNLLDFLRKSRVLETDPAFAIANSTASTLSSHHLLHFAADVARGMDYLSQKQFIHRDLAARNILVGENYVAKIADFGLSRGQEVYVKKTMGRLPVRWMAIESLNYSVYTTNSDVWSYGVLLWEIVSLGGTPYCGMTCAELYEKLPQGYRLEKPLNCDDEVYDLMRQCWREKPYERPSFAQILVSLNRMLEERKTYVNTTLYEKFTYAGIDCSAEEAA
# Ephrin type-A receptor 5 = Ephrin type-A receptor 5 (Homo sapiens, UniProt P54756); assay: Inhibition of recombinant human EphA5 (655 to 956 residues) using poly(Glu, Tyr) 4:1 as substrate measured after 40 mins in presence of [gamma33ATP] by radiometric scintillation counting analysis
# Aurora kinase B = Aurora kinase B (Homo sapiens, UniProt Q96GD4); assay: Inhibition of recombinant full length human AURORA-B using AKRRRLSSLRA as substrate incubated for 40 mins in presence of [gamma-33P]ATP and 10 uM ATP by radiometric scintillation counting analysis
# [9] = target: Cytoplasmic tyrosine-protein kinase BMX (Homo sapiens, UniProt P51813); assay: Inhibition of recombinant full length human BMX using poly(Glu, Tyr) 4:1 as substrate incubated for 40 mins in presence of [gamma-33ATP] by radiometric scintillation counting analysis
# [10] = target: Casein kinase I isoform gamma-2 (Homo sapiens, UniProt P78368); assay: Inhibition of recombinant human CK1gamma2 (18 to end residues) using KRRRALS(p)VAS as substrate incubated for 40 mins in presence of [gamma-33ATP] by radiometric scintillation counting analysis
# Casein kinase I isoform gamma-2, sequence (P78368 whole entry, canonical isoform): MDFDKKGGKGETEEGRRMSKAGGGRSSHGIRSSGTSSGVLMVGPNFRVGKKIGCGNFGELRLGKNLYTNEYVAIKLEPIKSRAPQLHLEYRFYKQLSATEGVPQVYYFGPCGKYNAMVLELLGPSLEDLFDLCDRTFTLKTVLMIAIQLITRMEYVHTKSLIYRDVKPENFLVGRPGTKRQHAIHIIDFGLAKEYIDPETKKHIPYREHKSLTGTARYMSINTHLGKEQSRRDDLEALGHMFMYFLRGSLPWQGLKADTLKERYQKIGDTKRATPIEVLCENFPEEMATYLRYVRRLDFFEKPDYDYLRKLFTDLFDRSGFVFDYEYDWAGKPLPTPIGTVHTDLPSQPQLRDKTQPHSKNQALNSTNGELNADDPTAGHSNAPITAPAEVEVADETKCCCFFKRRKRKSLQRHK
# [11] = target: Tyrosine-protein kinase ZAP-70 (Homo sapiens, UniProt P43403); assay: Inhibition of recombinant full length human ZAP70 using poly(Glu, Tyr) 4:1 as substrate incubated for 40 mins in presence of [gamma33P]ATP by radiometric scintillation counting analysis
# Tyrosine-protein kinase ZAP-70, sequence (P43403 whole entry): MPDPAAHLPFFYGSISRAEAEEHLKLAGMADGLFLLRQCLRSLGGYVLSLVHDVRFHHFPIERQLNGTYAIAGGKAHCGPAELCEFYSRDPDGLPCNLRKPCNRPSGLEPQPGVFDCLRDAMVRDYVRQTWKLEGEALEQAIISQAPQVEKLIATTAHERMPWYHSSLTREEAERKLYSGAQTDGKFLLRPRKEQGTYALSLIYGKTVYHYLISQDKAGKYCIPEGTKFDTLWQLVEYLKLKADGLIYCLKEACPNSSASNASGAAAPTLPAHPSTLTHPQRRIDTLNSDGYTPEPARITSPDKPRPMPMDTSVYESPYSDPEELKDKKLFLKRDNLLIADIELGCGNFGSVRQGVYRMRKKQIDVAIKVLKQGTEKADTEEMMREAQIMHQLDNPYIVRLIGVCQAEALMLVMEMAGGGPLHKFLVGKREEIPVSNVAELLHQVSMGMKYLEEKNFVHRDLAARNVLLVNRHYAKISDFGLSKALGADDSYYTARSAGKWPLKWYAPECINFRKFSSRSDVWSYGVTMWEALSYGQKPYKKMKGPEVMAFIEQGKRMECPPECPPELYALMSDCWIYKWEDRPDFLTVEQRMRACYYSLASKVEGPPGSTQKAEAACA
# [12] = target: Dual specificity tyrosine-phosphorylation-regulated kinase 3 (Homo sapiens, UniProt O43781); assay: Inhibition of recombinant full length human DYRK3 using RRRFRPASPLRGPP as substrate after 40 mins in presence of [gamma-33ATP] by radiometric scintillation counting analysis
# [13] = Inhibition of recombinant full length human JNK2alpha2 S51N mutant using ATF2 as substrate after 40 mins by [gamma-33ATP] by radiometric scintillation counting analysis
# [14] = target: Tyrosine-protein kinase Blk (Homo sapiens, UniProt P51451); assay: Inhibition of human full-length recombinant BLK M287V mutant using poly(Glu, Tyr) 4:1 as substrate measured after 40 mins in presence of [gamma33P]ATP by radiometric scintillation counting analysis
# [15] = target: Epidermal growth factor receptor (Homo sapiens, UniProt P00533, L861Q); assay: Inhibition of recombinant human EGFR L861Q mutant (696 to end residues) using poly(Glu, Tyr) 4:1 as substrate after 40 mins in presence of [gamma-33ATP] by radiometric scintillation counting analysis
# Epidermal growth factor receptor, sequence (P00533 25-1210 L861Q limits assumed): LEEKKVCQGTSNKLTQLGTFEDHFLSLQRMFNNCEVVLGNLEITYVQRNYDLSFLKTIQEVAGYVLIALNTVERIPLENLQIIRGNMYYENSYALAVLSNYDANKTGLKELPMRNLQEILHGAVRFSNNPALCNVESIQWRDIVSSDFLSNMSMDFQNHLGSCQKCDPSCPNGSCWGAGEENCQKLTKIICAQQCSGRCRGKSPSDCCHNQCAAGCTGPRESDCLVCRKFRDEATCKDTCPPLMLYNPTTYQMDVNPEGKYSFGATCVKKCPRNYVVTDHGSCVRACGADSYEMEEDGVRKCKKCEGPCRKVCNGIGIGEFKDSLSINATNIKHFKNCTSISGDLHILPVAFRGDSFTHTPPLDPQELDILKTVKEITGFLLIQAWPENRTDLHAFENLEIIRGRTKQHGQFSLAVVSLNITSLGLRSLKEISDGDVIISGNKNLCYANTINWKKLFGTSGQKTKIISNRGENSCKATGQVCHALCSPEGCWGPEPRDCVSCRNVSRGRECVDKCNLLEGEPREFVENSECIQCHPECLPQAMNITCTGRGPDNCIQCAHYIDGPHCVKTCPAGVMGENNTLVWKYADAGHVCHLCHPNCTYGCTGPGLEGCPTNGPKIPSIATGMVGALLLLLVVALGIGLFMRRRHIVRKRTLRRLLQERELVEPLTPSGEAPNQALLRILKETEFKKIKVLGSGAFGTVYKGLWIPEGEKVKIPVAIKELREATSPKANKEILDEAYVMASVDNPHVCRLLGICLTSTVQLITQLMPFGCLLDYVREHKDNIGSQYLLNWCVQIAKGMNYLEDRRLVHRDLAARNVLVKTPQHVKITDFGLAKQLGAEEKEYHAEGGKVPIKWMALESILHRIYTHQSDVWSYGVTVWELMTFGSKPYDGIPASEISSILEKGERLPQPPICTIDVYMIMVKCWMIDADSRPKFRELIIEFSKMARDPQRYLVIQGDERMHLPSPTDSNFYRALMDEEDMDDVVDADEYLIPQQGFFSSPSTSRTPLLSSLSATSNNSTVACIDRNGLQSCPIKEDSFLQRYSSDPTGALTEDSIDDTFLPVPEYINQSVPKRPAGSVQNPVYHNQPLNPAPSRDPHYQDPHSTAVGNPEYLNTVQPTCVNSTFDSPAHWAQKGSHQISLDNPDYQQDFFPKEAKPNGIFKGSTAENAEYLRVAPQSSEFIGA
# [16] = target: Receptor tyrosine-protein kinase erbB-4 (Homo sapiens, UniProt Q15303); assay: Inhibition of recombinant human ERBB4 (706 to 991 residues) using poly(Glu, Tyr) 4:1 as substrate after 40 mins in presence of [gamma-33ATP] by radiometric scintillation counting analysis
# [17] = target: Testis-specific serine/threonine-protein kinase 1 (Homo sapiens, UniProt Q9BXA7); assay: Inhibition of recombinant full-length human TSSK1 using KKKVSRSGLYRSP as substrate incubated for 40 mins in presence of [gamma33P]ATP by radiometric scintillation counting analysis
# TGF-beta receptor type-1 = TGF-beta receptor type-1 (Homo sapiens, UniProt P36897, T204D); assay: Inhibition of recombinant human TGFBR1 T204D mutant (200 to end residues) using casein as substrate incubated for 40 mins in presence of [gamma33P]ATP by radiometric scintillation counting analysis
# [18] = Inhibition of recombinant human MARK1 V16E/T20S double mutant (2 to end residues) using KKKVSRSGLYRSP as substrate incubated for 40 mins in presence of [gamma-33ATP by radiometric scintillation counting analysis
structure (smiles),measurement,setting,value
CN(C)c1ccc(C(=O)Nc2cccc(NC(=O)COc3ccc4c(=O)ccoc4c3)c2)cc1,IC50,[1],> 10 µM
same,IC50,[2],> 10 µM
same,IC50,[3],> 10 µM
same,IC50,LIM domain kinase 1,> 10 µM
same,IC50,CDK12/Cyclin K,> 10 µM
same,IC50,[4],> 10 µM
same,IC50,[5],> 10 µM
same,IC50,[6],> 10 µM
same,IC50,[7],> 10 µM
same,IC50,Myosin-IIIb,> 10 µM
same,IC50,[8],> 10 µM
same,IC50,Angiopoietin-1 receptor,> 10 µM
same,IC50,Ephrin type-A receptor 5,> 10 µM
same,IC50,Aurora kinase B,1.24 µM
same,IC50,[9],> 10 µM
same,IC50,[10],> 10 µM
same,IC50,[11],> 10 µM
same,IC50,[12],> 10 µM
same,IC50,[13],> 10 µM
same,IC50,[14],> 10 µM
same,IC50,[15],> 10 µM
same,IC50,[16],> 10 µM
same,IC50,[17],> 10 µM
same,IC50,TGF-beta receptor type-1,> 10 µM
same,IC50,[18],> 10 µM
